Legend:
[1] = Acute toxicity (LD50) in mice; conditions: mouse, in vivo
Protocol: The acute toxicity (LD50) of KS-619-1 in mice is more than 300 mg/kg·p.o. and more than 100 mg/kg·i.p.

[2] = system: rabbit mesenteric arteries; assay: Inhibition of KCl-induced contraction of surface-perfused, extirpated mesenteric arteries; format: cell-based, White bastard rabbits
Protocol: (1) Preparation of surface-perfused, extirpated mesenteric arteries
White bastard rabbits (male, 2-3 kg) were incised along the abdominal median line. […] The strips were ligated with silk yarn at both ends, and the lower end was connected to a stationary rod, whereas the upper end was connected to a […] transducer (SB-1T, product of Nippon Koden Co., Ltd.). Thus, the strips were suspended under an initial tension of 1.5 g. The preparation was kept at 37°±1° C. by means of peristaltic pump (Harvard 1210), while a gas (95% O2 and 5% CO2) was introduced therein. The surface of the preparation was perfused with a Krebs-Henseleit solution whose composition in g/l was NaCl: 6.92, KCl: 0.35, MgSO4.7H2 O: 0.29, CaCl2 : 0.28, KH2 PO4 : 0.16, NaHCO3 : 2.1 and glucose: 2.0 at a flow rate of 10 ml/min. After the preparation was stabilized for 1 to 2 hours, it was used for the experiment. Potassium chloride as a blood vessel-contracting substance was injected into flow of the perfusion solution through a cannula provided just before the preparation so that potassium chloride can have the ultimate concentration of 20 mM. The resulting contraction reaction was recorded on a polygraph (RM-45, product of Nippon Koden Co. Ltd.) in equal scales through the tension transducer. KS-619-1 was dissolved in ethanol to a concentration of 20 mg/ml, and the solution was properly diluted with a nutrient liquor and then continuously perfused from 10 minutes before the application of the contracting substance till the end of contraction reaction.
^(a) Inhibition percentage of contraction was calculated according to […]

Solubility = format: physicochemical

**Q.** Which LD50 ([1]; ip) does the source give for `CC(=O)Cc1cc2c(c(O)c1C(=O)O)-c1cc3c(c(O)c1CC2)C(=O)c1c(O)cc(O)cc1C3=O` [KS-619-1] here?
**A.** > 100 mg/kg

**Q.** What about the LD50 ([1]; po) of the same molecule?
**A.** > 300 mg/kg

**Q.** And the inhibition at 0.3 µg/mL ([2]; Oryctolagus cuniculus, KS-619-1 0.3 μg/ml (ultimate concentration), contracting substance potassium chloride 20 mM, read-out: Inhibition percentage of contraction)?
**A.** 33%

**Q.** What about the inhibition at 1 µg/mL ([2]; Oryctolagus cuniculus, KS-619-1 1.0 μg/ml (ultimate concentration), contracting substance potassium chloride 20 mM, read-out: Inhibition percentage of contraction) of the same molecule?
**A.** 67%

**Q.** And the “inhibition of contraction of rabbit mesenteric arteries (in words)” value ([2]; potassium chloride 20 mM, 0.3 and 1.0 μg/ml)?
**A.** inhibited the contraction of rabbit mesenteric arteries, depending on the concentration

**Q.** What about the Solubility (Solubility; in acetic acid) of the same molecule?
**A.** readily soluble

**Q.** What about the Solubility (Solubility; in chloroform and water) of the same molecule?
**A.** sparingly soluble

**Q.** And the Solubility (Solubility; in methanol, ethanol, acetone, ethyl acetate and butanol)?
**A.** soluble

Source: patent US4962125A, “Novel substance KS-619-1, preparation process and pharmaceutical composition” (Kyowa Hakko Kogyo, Co., Ltd., priority 1984, dated 1990)
